Reference: patent EP0103895A2, “Novel hydroxylamine derivatives, production and use thereof” (MEIJI SEIKA KABUSHIKI KAISHA, priority 1982, dated 1984)
“And” between values parts separate entries of the source, which are not always exact repeats. Equal entries are not always repeated. Where two headings read alike, the source gives them in different places.

Columns and labels:
[1] = tested on: fowl roundworm (As. galli); assay: Anthelmintic test in chickens artificially infected with fowl roundworm, compound added to feed, E.P.G. and worm count up to 21st day (Test Examples A2, B2, C2, D2); type: in vivo, Ascaridia galli; conditions: for inhibition in vivo at 20 ppm / inhibition in vivo at 50 ppm / inhibition in vivo at 25 ppm: Ascaridia galli, 504 h, read-out: Anthelmintic effect; for Change of E.P.G. Before administration: baseline
Method: Chickens artificially infected with fowl roundworm (As. galli) were employed in groups each of two chickens.
Fecal matter testing was conducted before initiation of the test and on the 7th, 14th and 21st day after initiation of the test. Reduction in worm egg number was examined by calculating E.P.G. (worm eggs per 1 g of fecal matter), and the number of discharged worm bodies and the number of worm bodies remaining in the enteron when the chicken was killed on 21st day were counted to determine the anthelmintic percentage, from which the anthelmintic effect was judged.

[2] = tested on: fowl roundworm (Ascaridia galli); assay: Anthelmintic test in chickens artificially infected with fowl roundworm, single oral dose in gelatin capsule, worm bodies counted within 48 hours (Test Examples A1, B1, C1, D1); type: in vivo; conditions: for inhibition in vivo at 30 mg/kg / inhibition in vivo at 50 mg/kg / inhibition in vivo at 15 mg/kg: Ascaridia galli, po, 48 h, read-out: Anthelmintic effect after 48 hours
Method: Chickens infected artificially with fowl roundworm (Ascaridia galli) were employed in groups each consisting of three chickens. Fecal matter testing was conducted before administration of medicine to confirm infection with the worm. The quantity of the compound provided for testing was 10 mg and 20 mg per Kg of body weight, which was orally administered each in a gelatin capsule to the chicken. The number of worm bodies discharged within 48 hours after administration of medicine was counted, the chicken was killed after 48 hours and the number of worm bodies remaining in the enteron was counted to determine the anthelmintic percentage, wherefrom the antihelmintic effect was judged.
The same as that in Test Example Al.
The same as that in Test Example Al except that the compound provided for testing was in quantities of 30 mg and 50 mg per Kg of body weight, which were orally administered to the chickens in gelatin capsules.
The same as that in Test Example Al, except that the compounds provided for testing were used in quantities of 15 mg and 30 mg per Kg of body weight, which were orally administered each in a gelatin capsule to the chicken.

[3] = tested on: canine filaria; Dirofilaria immitis; assay: Test of anthelmintic effect against canine filaria in naturally infected dogs, subcutaneous injection, microfilaria in blood and adult filaria at autopsy (Test Examples A10, B10, C10, D10); type: in vivo
Method: Eight dogs infected with canine filaria; Diro- filaria immitis (naturally infected dogs) were employed in groups each of two dogs.
The compounds provided for tests were Compound Nos. Al, A3 and A12. 20 mg of each was administered by subcutaneous injection per Kg of body weight to each of the two dogs as a suspension in 1% "Tween 80" solution once per day for three days. As control, 3 ml of the 1% "Tween 80" solution was subcutaneously injected into two dogs once per day for three days.
Before administration and on the 10th day after administration, 20 µl of earlobe blood of each dog was sampled and examined to determine the change in microfilaria (mf) according to the concentrated smear color method, and judgement on the effect on microfilaria (mf) was made. Judgement relating to adult filaria was made on the 10th day after the last administration by killing the dogs and carrying out autopsis.
30 mg of each compound was administered by subcutaneous injection per Kg of body weight to each of the two dogs as a suspension in 1% "Tween 80" solution once per day for three days. As control, 3 ml of the 1% "Tween 80" solution was subcutaneously injected into two dogs once per day for three days.
30 mg of each compound was administered by subcutaneous injection per Kg of body weight to each of two dogs as a suspension in 1% "Tween 80" solution once per day for three days. As control, 3 ml of the 1% "Tween 80" solution was subcutaneously injected to two dogs once per day for three days.
20 mg of each compound was administered by subcutaneous injection per kg of body weight once per day for three days to each of two dogs. These compounds were administered as a suspension in 1% "Tween 80" in the case of Compound No.Dl3 and as solutions dissolved in distilled water for injection in the case of Compounds Nos. D10 and D16, respectively. As control, 3 ml of the 1% "Tween 80" solution was subcutaneously injected into two dogs once per day for three days.

[4] = po, chickens, 20 ppm added to feed, worm count on 21st day, one value per chicken
[5] = po, chickens, 50 ppm added to feed, worm count on 21st day, one value per chicken
[6] = chickens, 30 mg/Kg orally in gelatin capsule, one value per chicken (No.1-3)
[7] = chickens, 50 mg/Kg orally in gelatin capsule, one value per chicken (No.1-3)
[8] = chickens, 20 ppm added to feed, one value per chicken
[9] = chickens, 50 ppm added to feed, one value per chicken
[10] = feed or water, chicken, 25 ppm in feed
[11] = feed or water, chicken, 50 ppm in feed
[12] = chicken, 30 mg/Kg oral in gelatin capsule, chickens No.1-3
[13] = chicken, 50 mg/Kg oral in gelatin capsule, chickens No.1-3
[14] = chicken, 15 mg/Kg oral in gelatin capsule, chickens No.1-3

C=CCN(OC)C(=O)CC [Compound B2, N-allyl-N-propionyl-O-methylhydroxylamine]
inhibition in vivo at 20 ppm [1, 4]: 80 to 90%
inhibition in vivo at 50 ppm [1, 5]: 100%
inhibition in vivo at 30 mg/kg [2, 6]: 100%
inhibition in vivo at 50 mg/kg [2, 7]: 100%

C=CCN(OC)C(=O)CCC [Compound B3, N-allyl-N-butylyl-O-methylhydroxylamine]
anthelmintic effect ([1]; chickens, 20 ppm added to feed, worm count on 21st day, one value per chicken): ++ (80 - 90%)
Change of E.P.G. Before administration [1, 8]: 5,600 E.P.G. and 7,900 E.P.G.
Change of E.P.G. 7th day [1, 8]: 3.100 E.P.G. and 3,000 E.P.G.
anthelmintic effect ([1]; chickens, 50 ppm added to feed, worm count on 21st day, one value per chicken): +++ (100%)
Change of E.P.G. Before administration [1, 9]: 10,700 E.P.G. and 14,300 E.P.G.
Change of E.P.G. 21st day [1, 9]: 0 E.P.G.
Anthelmintic effect after 48 hours [2, 6]: +++ (100%)
Anthelmintic effect after 48 hours [2, 7]: +++ (100%)

C=CCN(OC)C(=O)CCCCCCC/C=C\CCCCCCCC [Compound B4, N-allyl-N-oleoyl-O-methylhydroxylamine]
inhibition in vivo at 20 ppm [1, 4]: 100%
inhibition in vivo at 50 ppm [1, 5]: 100%
inhibition in vivo at 30 mg/kg [2, 6]: 100%
inhibition in vivo at 50 mg/kg [2, 7]: 100%

C=CCN(C=O)OC [Compound B6, N-allyl-N-formyl-O-methylhydroxylamine]
inhibition in vivo at 20 ppm [1, 4]: 80 to 90%
inhibition in vivo at 50 ppm [1, 5]: 100%
inhibition in vivo at 30 mg/kg [2, 6]: 100%
inhibition in vivo at 50 mg/kg [2, 7]: 100%

CC=CCN(OC)C(C)=O [Compound B7, N-crotyl-N-acetyl-O-methylhydroxylamine]
inhibition in vivo at 30 mg/kg [2, 6]: 100%
inhibition in vivo at 50 mg/kg [2, 7]: 100%

C=CCN(OCC)C(=O)CC [Compound B9, N-allyl-N-propionyl-O-ethylhydroxylamine]
inhibition in vivo at 30 mg/kg ([3]; Dirofilaria immitis, sc, 240 h, dogs, administration of 30 mg/Kg repeated three times, given as about 50% or more, read-out: anthelmintic effect against adult filaria): ≥ 50%
Number of microfilaria/20 µl on 10th day after the last administration ([3]; dog, 30 mg/Kg x 3, subcutaneous injection, suspension in 1% Tween 80): 0 /20 µl
Effect on adult filaria: Number of worms killed/ Total parasite ([3]; dog, 30 mg/Kg x 3, subcutaneous injection, 30 mg/kg): 5/7 and 4/8
anthelmintic effect against microfilaria (mf) ([3]; dogs, administration of 30 mg/Kg repeated three times): marked anthelmintic effect
inhibition in vivo at 30 mg/kg [2, 6]: 100%
inhibition in vivo at 50 mg/kg [2, 7]: 100%

C=CCN(OCC)C(=O)CCC [Compound B10, N-allyl-N-butylyl-0-ethylhydroxylamine]
inhibition in vivo at 30 mg/kg [2, 6]: 100%
inhibition in vivo at 50 mg/kg [2, 7]: 100%

C=CCN(OCC)C(=O)CC(C)C [Compound B11, N-allyl-N-isovaleroyl-O-ethylhydroxylamine]
inhibition in vivo at 30 mg/kg [2, 6]: 100%
inhibition in vivo at 50 mg/kg [2, 7]: 100%

C=CCN(OCC)C(=O)CCCCCCCCCCCCCCCCC [Compound B12, N-allyl-N-stearoyl-O-ethylhydroxylamine]
inhibition in vivo at 30 mg/kg [2, 6]: 100%
inhibition in vivo at 50 mg/kg [2, 7]: 100%

C=CCN(OCC)C(=O)c1ccccc1 [Compound B13, N-allyl-N-benzoyl-0-ethylhydroxylamine]
inhibition in vivo at 30 mg/kg [2, 6]: 100%
inhibition in vivo at 50 mg/kg [2, 7]: 100%

C=CCN(OCC)C(=O)c1ccc(F)cc1 [Compound B14, N-allyl-N-(p-fluorobenzoyl)-O-ethylhydroxylamine]
inhibition in vivo at 30 mg/kg [2, 6]: 100%
inhibition in vivo at 50 mg/kg [2, 7]: 100%

C=CCN(C=O)OCC [Compound B15, N-allyl-N-formyl-O-ethylhydroxylamine]
inhibition in vivo at 20 ppm [1, 4]: 80 to 90%
inhibition in vivo at 50 ppm [1, 5]: 100%
inhibition in vivo at 30 mg/kg [2, 6]: 100%
inhibition in vivo at 50 mg/kg [2, 7]: 100%

CC=CCN(OCC)C(C)=O [Compound B16, N-crotyl-N-acetyl-O-ethylhydroxylamine]
inhibition in vivo at 20 ppm [1, 4]: 100%
inhibition in vivo at 50 ppm [1, 5]: 100%
inhibition in vivo at 30 mg/kg [2, 6]: 100%
inhibition in vivo at 50 mg/kg [2, 7]: 100%

C=CCN(OCCC)C(C)=O [Compound B17, N-allyl-N-acetyl-O-propylhydroxylamine]
inhibition in vivo at 20 ppm [1, 4]: 80 to 90%
inhibition in vivo at 50 ppm [1, 5]: 100%
inhibition in vivo at 30 mg/kg [2, 6]: 100%
inhibition in vivo at 50 mg/kg [2, 7]: 100%

C=CCN(OCCCC)C(C)=O [Compound B18, N-allyl-N-acetyl-0-butylhydroxylamine]
inhibition in vivo at 20 ppm [1, 4]: 100%
inhibition in vivo at 50 ppm [1, 5]: 100%
inhibition in vivo at 30 mg/kg [2, 6]: 100%
inhibition in vivo at 50 mg/kg [2, 7]: 100%

C=CCON(CC=C)C(=O)CCCCCCCCCCCCCCCCC [Compound C5]
inhibition in vivo at 25 ppm [1, 10]: 80 to 90%
inhibition in vivo at 50 ppm [1, 11]: 100%
inhibition in vivo at 30 mg/kg [2, 12]: 80 to 90%
inhibition in vivo at 50 mg/kg [2, 13]: 80 to 90%

C=CCON(C=O)CC=C [Compound C8]
inhibition in vivo at 25 ppm [1, 10]: 100%
inhibition in vivo at 50 ppm [1, 11]: 100%
Change of E.P.G. 21st day ([1]; chicken, 25 ppm in feed): 0
Change of E.P.G. 21st day ([1]; chicken, 50 ppm in feed): 0
inhibition in vivo at 30 mg/kg [2, 12]: 100%
inhibition in vivo at 50 mg/kg [2, 13]: 100%

C=CCNOCCC [Compound D2, N-allyl-0-propylhydroxylamine]
inhibition in vivo at 25 ppm [1, 10]: 80 to 90%
inhibition in vivo at 50 ppm [1, 11]: 100%
inhibition in vivo at 30 mg/kg [2, 12]: 100%

C=CCNOCC=C [Compound D4]
inhibition in vivo at 25 ppm [1, 10]: 80 to 90%
inhibition in vivo at 50 ppm [1, 11]: 100%
inhibition in vivo at 15 mg/kg [2, 14]: 80 to 90%
inhibition in vivo at 30 mg/kg [2, 12]: 100%

C#CCONCC=C [Compound D5]
inhibition in vivo at 25 ppm [1, 10]: 80 to 90%
inhibition in vivo at 50 ppm [1, 11]: 100%
inhibition in vivo at 15 mg/kg [2, 14]: 100%
inhibition in vivo at 30 mg/kg [2, 12]: 100%
Anthelmintic effect after 48 hours ([2]; chicken, 15 mg/Kg oral in gelatin capsule, chickens No.1-3, 15 mg/kg): +++ (100%)
Anthelmintic effect after 48 hours [2, 12]: +++ (100%)

CC=CCNOCC [Compound D7]
inhibition in vivo at 30 mg/kg [2, 12]: 100%

C=CCONCC=CC [Compound D8]
inhibition in vivo at 15 mg/kg [2, 14]: 80 to 90%
inhibition in vivo at 30 mg/kg [2, 12]: 100%

C#CCNOCCC [Compound D11]
inhibition in vivo at 30 mg/kg [2, 12]: 100%

C#CCNOCC=C [Compound D13, N-propargyl-O-allylhydroxylamine]
inhibition in vivo at 20 mg/kg ([3]; Dirofilaria immitis, sc, 240 h, dog, 20 mg/Kg x 3, subcutaneous injection, read-out: Effect on adult filaria: Percent of worms killed): 63%
inhibition in vivo at 20 mg/kg ([3]; Dirofilaria immitis, sc, 240 h, dogs, administration of 20 mg/Kg repeated three times, given as about 50% or more, read-out: anthelmintic effect against adult filaria): ≥ 50%
Number of microfilaria/20µl On 10th day after the administration ([3]; dog, 20 mg/Kg x 3, subcutaneous injection): 0 /20µl
Effect on adult filaria: Number of worms killed/ Total parasite ([3]; dog, 20 mg/Kg x 3, subcutaneous injection, 20 mg/kg): 21/33 and 20/30
Number of microfilaria/20µl Before administration ([3]; dog, before 20 mg/Kg x 3 subcutaneous injection (baseline)): 33 /20µl and 26 /20µl
anthelmintic effect against microfilaria (mf) ([3]; dogs, administration of 20 mg/Kg repeated three times): marked anthelmintic effect
inhibition in vivo at 15 mg/kg [2, 14]: 80 to 90%
inhibition in vivo at 30 mg/kg [2, 12]: 100%
